Measured values taken from ChEMBL document CHEMBL3879895, “Compositions and methods for treating ocular edema, neovascularization and related diseases” (2014).
Calls of active or inactive are those of the source. No cut-off for these calls is given here.

Test system: Mus musculus
Assay: Reduction of neovascular tufts in retina of rhodopsin/VEGF transgenic mouse at 3 to 10 mg/kg, sc bid administered for 7 days started on post natal day 14 measured on post natal day 21 by FITC-conjugated GSA-lectin staining-based fluorescence microscopy
Assay type: functional, organism-based

`COC(=O)N[C@@H](Cc1ccccc1)C(=O)N[C@@H](Cc1ccc(NS(=O)(=O)O)cc1)c1csc(-c2csc(-c3cccs3)n2)n1` was tested, and the Activity was “Active”.
